Biological target: PKMYT1 (Homo sapiens (Human), UniProt Q99640)
Assay: PKMYT1 HTRF Assay
Type: binding
Conditions: Tracer 178, GST-Tb; compound 10 μM to 0.5 nM; read-out: MYT1 HTRF IC50
Method: Example A: PKMYT1 HTRF Assay
Compound serial dilution is performed by Echo, and the final concentrations vary from 10 μM to 0.5 nM. This was filled by the addition of 5 μL/well of Enzyme solution to the assay plate containing the compound. The plate was centrifuged at 1000 rpm for 1 minute, and incubate 15 minutes at 25 ? . Then 5 μL/well of tracer solution (Tracer 178) was added to initiate the reaction, and incubate for 60 minutes at 25° C. Next 5 μL GST-Tb was added into the assay plate, the plate was centrifuged at 1000 rpm for 1 minute, and incubate for 15 minutes at 25 ? . The assay plate was read on Envision.

PKMYT1, sequence (Q99640 whole entry): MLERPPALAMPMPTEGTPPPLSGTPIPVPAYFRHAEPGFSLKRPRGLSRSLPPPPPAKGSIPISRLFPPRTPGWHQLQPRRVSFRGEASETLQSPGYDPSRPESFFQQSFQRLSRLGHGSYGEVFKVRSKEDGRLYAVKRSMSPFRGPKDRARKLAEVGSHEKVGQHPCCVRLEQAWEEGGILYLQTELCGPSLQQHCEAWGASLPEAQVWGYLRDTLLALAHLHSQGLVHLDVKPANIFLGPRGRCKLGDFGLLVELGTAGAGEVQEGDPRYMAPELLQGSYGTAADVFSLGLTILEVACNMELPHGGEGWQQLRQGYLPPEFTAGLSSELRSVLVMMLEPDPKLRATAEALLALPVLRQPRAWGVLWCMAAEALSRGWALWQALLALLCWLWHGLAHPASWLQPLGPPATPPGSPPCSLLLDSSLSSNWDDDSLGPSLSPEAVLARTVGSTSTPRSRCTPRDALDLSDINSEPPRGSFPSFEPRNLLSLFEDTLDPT

Row | Compound | IC50
1 | Cc1ccc(O)c(C)c1-c1cnc2[nH]c(-c3cnc(N)nc3)cc2c1C#N [Example 39, (R)-2-(2-aminopyrimidin-5-yl)-5-(3-hydroxy-2,6-dimethylphenyl)-1H-pyrrolo[2,3-b]pyridine-4-carbonitrile] | < 10 nM
2 | Cc1ccc(O)c(C)c1-c1cnc2[nH]c(-c3cnc(N4CC[S@SP1](=O)(=O)CC4)nc3)c(Cl)c2c1C#N [Example 84, (R)-3-chloro-2-(2-(1,1-dioxidothiomorpholino)pyrimidin-5-yl)-5-(3-hydroxy-2,6-dimethylphenyl)-1H-pyrrolo[2,3-b]pyridine-4-carbonitrile] | < 10 nM
3 | Cc1ccc(O)c(C)c1-c1cnc2[nH]c(-c3ccn(C)c(=O)c3)cc2c1 [Example 9, 4-(5-(3-hydroxy-2,6-dimethylphenyl)-1H-pyrrolo[2,3-b]pyridin-2-yl)-1-methylpyridin-2 (1H)-one] | 10 to 50 nM
4 | Cc1ccc(O)c(C)c1-c1cnc2[nH]c(-c3cnc(N4CC5CC4CO5)nc3)cc2c1C#N [Example 42, (R)-2-(2-((1S,4S)-2-oxa-5-azabicyclo[2.2.1]heptan-5-yl)pyrimidin-5-yl)-5-(3-hydroxy-2,6-dimethylphenyl)-1H-pyrrolo[2,3-b]pyridine-4-carbonitrile] | < 10 nM
5 | Cc1ccc(O)c(C)c1-c1cnc2[nH]c(-c3cnn(C)c(=O)c3)c(Cl)c2c1C#N [Example 66, (R)-3-chloro-5-(3-hydroxy-2,6-dimethylphenyl)-2-(1-methyl-6-oxo-1,6-dihydropyridazin-4-yl)-1H-pyrrolo[2,3-b]pyridine-4-carbonitrile] | < 10 nM
6 | Cc1ccc(O)c(C)c1-c1cnc2[nH]c(-c3cnc(N)s3)cc2c1C#N [Example 126, (S)-2-(2-aminothiazol-5-yl)-5-(3-hydroxy-2,6-dimethylphenyl)-1H-pyrrolo[2,3-b]pyridine-4-carbonitrile] | < 10 nM
7 | Cc1ccc(O)c(C)c1-c1cnc2[nH]c(-c3cnc(OCC(O)CO)nc3)cc2c1C#N [Example 83, (5R)-2-(2-(2,3-dihydroxypropoxy)pyrimidin-5-yl)-5-(3-hydroxy-2,6-dimethylphenyl)-1H-pyrrolo[2,3-b]pyridine-4-carbonitrile] | < 10 nM
8 | Cc1ccc(O)c(C)c1-c1cnc2[nH]c(-c3cnn(CCO)c3)cc2c1 [Example 81, 3-(2-(1-(2-hydroxyethyl)-1H-pyrazol-4-yl)-1H-pyrrolo[2,3-b]pyridin-5-yl)-2,4-dimethylphenol] | 50 to 500 nM
9 | Cc1cnc(-c2cc3cc(-c4c(C)ccc(O)c4C)cnc3[nH]2)cn1 [Example 29, 2,4-dimethyl-3-(2-(5-methylpyrazin-2-yl)-1H-pyrrolo[2,3-b]pyridin-5-yl)phenol] | 50 to 500 nM
10 | Cc1ccc(O)c(C)c1-c1cnc2[nH]c(-c3cnc(N)c(C#N)c3)cc2c1C#N [Example 130, (S)-2-(6-amino-5-cyanopyridin-3-yl)-5-(3-hydroxy-2,6-dimethylphenyl)-1H-pyrrolo[2,3-b]pyridine-4-carbonitrile] | < 10 nM
11 | Cc1ccc(O)c(C)c1-c1cnc2[nH]c(-c3cnc(N(C)C4COC4)nc3)cc2c1C#N [Example 96, (R)-5-(3-hydroxy-2,6-dimethylphenyl)-2-(2-(methyl(oxetan-3-yl)amino)pyrimidin-5-yl)-1H-pyrrolo[2,3-b]pyridine-4-carbonitrile] | 10 to 50 nM
12 | Cc1ccc(O)c(C)c1-c1cnc2[nH]c(-c3cnc[nH]3)cc2c1C#N [Example 125, (S)-5-(3-hydroxy-2,6-dimethylphenyl)-2-(1H-imidazol-5-yl)-1H-pyrrolo[2,3-b]pyridine-4-carbonitrile] | < 10 nM
13 | Cc1ccc(O)c(C)c1-c1cnc2[nH]c(-c3cnc(N)nc3)c(C#CC(C)(C)O)c2n1 [Example 14, 3-(6-(2-aminopyrimidin-5-yl)-7-(3-hydroxy-3-methylbut-1-yn-1-yl)-5H-pyrrolo[2,3-b]pyrazin-2-yl)-2,4-dimethylphenol] | < 10 nM
14 | Cc1ccc(O)c(C)c1-c1cnc2[nH]c(-c3cnc(N)nc3)c(C)c2c1C#N [Example 106, (R)-2-(2-aminopyrimidin-5-yl)-5-(3-hydroxy-2,6-dimethylphenyl)-3-methyl-1H-pyrrolo[2,3-b]pyridine-4-carbonitrile] | < 10 nM
15 | Cc1ccc(O)c(C)c1-c1cnc2[nH]c(-c3cnc(NC4CC4)nc3)cc2c1C#N [Example 47, (R)-2-(2-(cyclopropylamino)pyrimidin-5-yl)-5-(3-hydroxy-2,6-dimethylphenyl)-1H-pyrrolo[2,3-b]pyridine-4-carbonitrile] | < 10 nM
16 | Cc1ccc(O)c(C)c1-c1cnc2[nH]c(-c3cnc(N4CCC(F)(F)C4)nc3)c(Cl)c2c1C#N [Example 38, (R)-3-chloro-2-(2-(3,3-difluoropyrrolidin-1-yl)pyrimidin-5-yl)-5-(3-hydroxy-2,6-dimethylphenyl)-1H-pyrrolo[2,3-b]pyridine-4-carbonitrile] | < 10 nM
17 | Cc1ccc(O)c(C)c1-c1cnc2[nH]c(-c3cnc(N4CCOC4=O)nc3)c(Cl)c2c1C#N [Example 82, (R)-3-chloro-5-(3-hydroxy-2,6-dimethylphenyl)-2-(2-(2-oxooxazolidin-3-yl)pyrimidin-5-yl)-1H-pyrrolo[2,3-b]pyridine-4-carbonitrile] | < 10 nM

Row | Compound | IC50
18 | Cc1ccc(O)c(C)c1-c1cnc2[nH]c(-c3cnc(N4CCCC4CO)nc3)c(Cl)c2c1C#N (stereo not drawn) [Example 74, 3-chloro-5-(3-hydroxy-2,6-dimethylphenyl)-2-(2-(2-(hydroxymethyl)pyrrolidin-1-yl)pyrimidin-5-yl)-1H-pyrrolo[2,3-b]pyridine-4-carbonitrile] | < 10 nM
19 | Cc1ccc(O)c(C)c1-c1cnc2[nH]c(-c3cnc(N)nc3)nc2c1C#N [Example 116, (S)-2-(2-aminopyrimidin-5-yl)-6-(3-hydroxy-2,6-dimethylphenyl)-3H-imidazo[4,5-b]pyridine-7-carbonitrile] | < 10 nM
20 | Cc1ccc(O)c(C)c1-c1cnc2[nH]c(-c3cnc(C4CC4)nc3)cc2c1C#N [Example 56, (S)-2-(2-cyclopropylpyrimidin-5-yl)-5-(3-hydroxy-2,6-dimethylphenyl)-1H-pyrrolo[2,3-b]pyridine-4-carbonitrile] | < 10 nM
21 | Cc1ccc(O)c(C)c1-c1cnc2[nH]c(-c3cnc(CN)nc3)cc2c1C#N [Example 129, (S)-2-(2-(aminomethyl)pyrimidin-5-yl)-5-(3-hydroxy-2,6-dimethylphenyl)-1H-pyrrolo[2,3-b]pyridine-4-carbonitrile] | < 10 nM
22 | Cc1ncc(-c2[nH]c3ncc(-c4c(C)ccc(O)c4C)c(C#N)c3c2C2CC2)cn1 [Example 108, 3-cyclopropyl-5-(3-hydroxy-2,6-dimethylphenyl)-2-(2-methylpyrimidin-5-yl)-1H-pyrrolo[2,3-b]pyridine-4-carbonitrile] | 10 to 50 nM
23 | Cc1ccc(O)c(C)c1-c1cnc2[nH]c(-c3cnc(NC4CC4)s3)nc2c1 [Example 115, 3-(2-(2-(cyclopropylamino)thiazol-5-yl)-3H-imidazo[4,5-b]pyridin-6-yl)-2,4-dimethylphenol] | 50 to 500 nM
24 | Cc1ccc(O)c(C)c1-c1cnc2[nH]c(-c3cnn(CCCO)c3)cc2c1C#N [Example 131, (S)-5-(3-hydroxy-2,6-dimethylphenyl)-2-(1-(3-hydroxypropyl)-1H-pyrazol-4-yl)-1H-pyrrolo[2,3-b]pyridine-4-carbonitrile] | < 10 nM
25 | Cc1ccc(O)c(C)c1-c1cnc2[nH]c(-c3cn[nH]c(=O)c3)cc2c1C#N [Example 134] | < 10 nM
26 | Cc1ncc(-c2[nH]c3ncc(-c4c(C)ccc(O)c4C)c(C#N)c3c2Sc2ccccc2)cn1 [Example 113, 5-(3-hydroxy-2,6-dimethylphenyl)-2-(2-methylpyrimidin-5-yl)-3-(phenylthio)-1H-pyrrolo[2,3-b]pyridine-4-carbonitrile] | 50 to 500 nM
27 | Cc1ncc(-c2[nH]c3ncc(-c4c(C)ccc(O)c4C)c(C#N)c3c2Cl)s1 [Example 60, (R)-3-chloro-5-(3-hydroxy-2,6-dimethylphenyl)-2-(2-methylthiazol-5-yl)-1H-pyrrolo[2,3-b]pyridine-4-carbonitrile] | < 10 nM
28 | Cc1ncc(-c2[nH]c3ncc(-c4c(C)ccc(O)c4C)c(C#N)c3c2Cl)cn1 (atropisomer, axis not shown) [Example 33, (S)-3-chloro-5-(3-hydroxy-2,6-dimethylphenyl)-2-(2-methylpyrimidin-5-yl)-1H-pyrrolo[2,3-b]pyridine-4-carbonitrile] | < 10 nM
29 | Cc1ccc(O)c(C)c1-c1cnc2[nH]c(-c3cnc(N4CC(O)C4)nc3)cc2c1C#N [Example 45, (R)-5-(3-hydroxy-2,6-dimethylphenyl)-2-(2-(3-hydroxyazetidin-1-yl)pyrimidin-5-yl)-1H-pyrrolo[2,3-b]pyridine-4-carbonitrile] | < 10 nM
30 | C#Cc1cc(-c2cc3c(C#N)c(-c4c(C)ccc(O)c4C)cnc3[nH]2)cnc1N [Example 87, (R)-2-(6-amino-5-ethynylpyridin-3-yl)-5-(3-hydroxy-2,6-dimethylphenyl)-1H-pyrrolo[2,3-b]pyridine-4-carbonitrile] | < 10 nM
31 | Cc1ccc(O)c(C)c1-c1cnc2[nH]c(-c3cnc4[nH]cnc4c3)cc2c1C#N [Example 63, (R)-5-(3-hydroxy-2,6-dimethylphenyl)-2-(3H-imidazo[4,5-b]pyridin-6-y1)-1H-pyrrolo[2,3-b]pyridine-4-carbonitrile] | < 10 nM
32 | Cc1ccc(O)c(C)c1-c1cnc2[nH]c(-c3cc[nH]n3)cc2c1C#N [Example 120, (S)-5-(3-hydroxy-2,6-dimethylphenyl)-2-(1H-pyrazol-3-yl)-1H-pyrrolo[2,3-b]pyridine-4-carbonitrile] | < 10 nM
33 | Cc1ccc(O)c(C)c1-c1cnc2[nH]c(-c3ccc(N4CCN(C)CC4)nc3C)nc2c1 [Example 1, 2,4-dimethyl-3-(2-(2-methyl-6-(4-methylpiperazin-1-yl)pyridin-3-yl)-3H-imidazo[4,5-b]pyridin-6-yl)phenol] | 50 to 500 nM

From patent US20250136596A1, “MEMBRANE-ASSOCIATED TYROSINE- AND THREONINE-SPECIFIC CDC2-INHIBITORY KINASE (PKMYT1) INHIBITORS AND USES THEREOF” (Insilico Medicine IP Limited, priority 2022, published 2025)
